The record followed here is US11285142B2, “Compositions and methods for identifying and treating dystonia disorders” (DUKE UNIVERSITY, priority 2015, dated 2022).

Assay [1] concerns cortico-striatal synapse LTD (striatal projection neurons). The experiment in a line: Long-term depression at the cortico-striatal synapse, whole-cell electrophysiology in acute brain slices. Type of assay: cell-based, mouse. As for the experimental part: To directly test these predictions, whole-cell electrophysiology of striatal projection neurons was performed in acute brain slices to induce long-term depression in the presence of eIF2-alpha pathway-modulating drugs. Acute horizontal brain slices from the progeny of heterozygous ΔE Torsin1a knockin×homozygous Drd1a-tdTomato mice (age P15-21) were prepared largely as described in (Trusel et al., 2015, Cell Rep. 13, 1353-65). LTD was induced as in Trusel et al., 2015, with modifications.
Heterozygous delGAG Torsin1a knockin mice (courtesy of Dr. W. Dauer, University of Michigan) were crossed with homozygous Drd1a-tdTomato mice (Jackson Labs) and the progeny was used at postnatal day 15-21 for experiments. […]
Single slices were transferred to a recording chamber and superfused continuously with ACSF containing 50 μM picrotoxin at 32° C. and 3-4 mL/min. […] Evoked excitatory postsynaptic potentials (EPSPs) were recorded in the dorsolateral striatum, while stimulating every 30 seconds with a concentric bipolar electrode (FHC) in cortical layer V (see Trusel et al., Cell Reports, 2015). […] Baseline EPSPs were recorded for at least 10 min or until a stable baseline was reached. Data were acquired by pClamp v10 and analyzed using Clampfit v10.4, Origin v8.0, and GraphPad Prism v6.

Assay [2] has as its system WT Torsin1a localization in Flp-In T-REx 293 cells expressing EGFP-WT Torsin1a. The experiment in a line: Torsin1a localization assay in WT Torsin1a-expressing assay cell line. Type of assay: cell-based, human. As to conditions: WT Torsin1a-expressing cell line, dose response. The text has this: To develop an assay capable of detecting conditions that correct a dystonia cellular phenotype, two human cell lines were generated that stably expressed EGFP-tagged human wild-type Torsin 1A, or delta-E Torsin1a, from a single cDNA copy integrated at a defined genomic site (FIG. 1, panel 1).
To limit variation in expression levels associated with random integration or transient expression, single copies of either WT or delta-E human TOR1A cDNAs with N-terminal EGFP fusions were inserted at the FRT site in Flp-In™ T-Rex™ 293 cells (Thermo Fisher Scientific #R780-07) via flippase recombinase-mediated cassette exchange according to the manufacturer's recommended protocols. This system includes an inducible expression feature (TetON) that avoids selective pressure for potential toxic effects of chronic expression of mutant proteins (FIG. 1, panel 1). […]
This approach provides control over expression levels, avoiding the wide variation typically seen with random genomic integration or transient expression approaches. […] The mutant phenotype was measured as the percentage of cells with one or more EGFP puncta using automated high-content imaging analysis (see infra).
Development and validation of the high-content image analysis and assay performance under high-throughput screening conditions is presented in FIG. 9. […] Automated exposure times for each plate were determined by setting a target saturation of 25% in channel 1 in wells containing tetracycline-induced delta-E cells. Detected cells were gated according to nuclear area, length-to-width ratio, and perimeter-to-area ratio. […] EGFP fluorescence (Ch2: excitation 488 nm; emission 509 nm) was used for puncta detection. Automated exposure times for each plate were determined by setting a target saturation of 35% in channel 2 in wells containing induced delta-E cells. […]

SMILES strings stand for the structures.

For the compound `O=C(COc1ccc(Cl)cc1)NC1CCC(NC(=O)COc2ccc(Cl)cc2)CC1` (stereo not drawn) [ISRIB], in assay [1] (pre-incubation 5 nM, WT mice), the “LTD in WT brain slices” value is listed as “robustly inhibited LTD”. In assay [2], the “effect on WT Torsin1a localization (cells with punctate Torsin1a, in words)” value is “dose-dependent increase”.
Regarding `O=C(/C=C/c1ccccc1)NC(NC(=S)Nc1ccc(Cl)cc1)C(Cl)(Cl)Cl` (stereo not drawn) [Sal-003], the “long-term depression in brain slices of mice heterozygous for DYT1 knockin mutation (delGAG)” value in assay [1] (20 μM, vs vehicle-treated slices) is listed as “restored long-term depression”.
